14 compounds from PMC8587869, “Evaluation of the Inhibitory Effects of Pyridylpyrazole Derivatives on LPS-Induced PGE2 Productions and Nitric Oxide in Murine RAW 264.7 Macrophages” (Molecules, 2021) can be followed below.

Assay type in all cases: cell-based, murine
Data set [1] is described as follows: MTT assay for cell viability in RAW 264.7 macrophages. As to conditions: mouse, murine RAW 264.7 macrophages, mean ± SD of three experiments. Here is the method: (§1) Before screening the PGE2 and NO production inhibitory effects of the compounds, the compounds’ cytotoxicity was evaluated at 1 and 10 μM concentrations to make sure that the tested concentrations are safe enough and non-cytotoxic to avoid misleading results. All compounds were non-cytotoxic at 1 μM concentration, while by increasing concentration to 10 μM, all the target compounds except 1f, 1k, and 1m started showing cytotoxicity. […] The piperidinyl and the morpholino moieties seem to be unfavorable to avoid cytotoxicity in this series of compounds. page 9: Biological evaluation Cell culture and sample treatment, nitrite determination, PGE2 assay, and MTT assay for cell viability have been carried out following the reported procedures [Bioorg. Med. Chem. Lett. 2014, 24, 571 & Eur. J. Pharmacol. 2008, 584, 175]. Western blot RAW 264.7 macrophage cells were re-suspended in PRO-PREPTM protein extraction solution (Intron Biotechnology, Seoul, Korea) and incubated with 20 min at 4 °C. The cell debris was removed by microcentrifugation, and the supernatants were quickly frozen. The protein concentration was determined using the Bio-Rad protein assay reagent according to the manufacture’s instruction. Cellular proteins were electroblotted onto a PVDF membrane following separation on 8-12% SDS-polyacrylamide gel electrophoresis. The immunoblot was incubated with blocking solution (5% skimmed milk) at room temperature for 1 h, followed by incubation overnight with a primary antibody at 4 °C. The blots were washed four times with a Tween 20/Tris-buffered saline (T/TBS) and incubated with a 1:2000 dilution of horseradish peroxidase-conjugated secondary antibody for 2 h at room temperature. The blots were again washed three times with T/TBS, and then developed by enhanced chemiluminescence (GE healthcare, WI, USA). Page 9 of 55

In data set [2] the test system is RAW 264.7 macrophages. Described as above. As to conditions: 10 μM; RAW 264.7 macrophages. As for the experimental part: as §1
Data set [3] has as its system LPS-induced PGE2 production. As to the kind of experiment: Inhibition of LPS-induced PGE2 production in RAW 264.7 macrophages. As to conditions: for inhibition of PGE2 production (in words): 2.5, 5, 10 μM. Here is the method:
(§2) Upon confirming the non-cytotoxicity of 10 μM concentration of these three derivatives against murine RAW 264.7 macrophages induced by LPS, compounds 1f, 1k, and 1m were tested for inhibitory effect against LPS-induced PGE2 production together with checking their cell viability. […] The fluorine atom can also add some more merits such as formation of an additional hydrogen bond with a hydrogen bond donor in the target protein and stronger hydrophobic interaction by fluorophenyl compared with unsubstituted phenyl. […] Moreover, 1f and 1m were evaluated at 1 and 10 μM for inhibitory effects on LPS-induced NO production.
(§3) Cell culture and sample treatment, nitrite determination, PGE2 assay, and MTT assay for cell
(§4) viability have been carried out following the reported procedures [Bioorg. Med. Chem. Lett. […]

For data set [4], the system named is LPS-induced NO production. The data set is described as follows: Inhibition of LPS-induced NO production (nitrite determination) in RAW 264.7 cells. As to conditions: LPS-induced RAW 264.7 cells; for inhibition at 1 µM / inhibition at 10 µM: Mus musculus, read-out: Inhibition Rate (%) of NO production; for inhibition at 1 µM: RAW264.7, 1 μM; for inhibition at 10 µM: RAW264.7, 10 μM. Here is the method: as §2, §3, §4

The subject of data set [5] is RAW 264.7 macrophages. As to the kind of experiment: MTT assay for cell viability in RAW 264.7 macrophages. As to conditions: 2.5, 5, 10 μM; LPS-induced RAW 264.7 macrophages. For orientation: Tetrazolium dyes change colour on reduction, which living cells bring about.
The next data set deals with phosphorylation of p38. The data set is described as follows: Western blot of p-p38 in LPS-induced RAW 264.7 macrophages. As for the experimental part: (§5) Furthermore, the most promising compound 1m was chosen for a more extensive investigation of its molecular mechanism(s) of action. It was tested for inhibitory effects on COX-2 and iNOS protein expressions (Figure 4).
(§6) Cell culture and sample treatment, nitrite determination, PGE2 assay, and MTT assay for cell viability have been carried out following the reported procedures [Bioorg. Med. Chem. Lett.
(§7) RAW 264.7 macrophage cells were re-suspended in PRO-PREPTM protein extraction solution (Intron Biotechnology, Seoul, Korea) and incubated with 20 min at 4 °C. The cell debris was removed by microcentrifugation, and the supernatants were quickly frozen. The protein concentration was determined using the Bio-Rad protein assay reagent according to the manufacture’s instruction. Cellular proteins were electroblotted onto a PVDF membrane following separation on 8-12% SDS-polyacrylamide gel electrophoresis. The immunoblot was incubated with blocking solution (5% skimmed milk) at room temperature for 1 h, followed by incubation overnight with a primary antibody at 4 °C. The blots were washed four times with a Tween 20/Tris-buffered saline (T/TBS) and incubated with a 1:2000 dilution of horseradish peroxidase-conjugated secondary antibody for 2 h at room temperature. The blots were again washed three times with T/TBS, and then developed by enhanced chemiluminescence (GE
On the technique in general: A western blot detects proteins with antibodies after separation by electrophoresis.

The subject of another data set is iNOS protein expression. As to the kind of experiment: Western blot of iNOS protein expression in LPS-induced RAW 264.7 macrophages. As to conditions: especially at 10 µM. Here is the method: as §5, §6, §7
The next data set has as its system COX-2 protein expression. As to the kind of experiment: Western blot of COX-2 protein expression in LPS-induced RAW 264.7 macrophages. As to conditions: especially at 10 µM. As for the experimental part: as §5, §6, §7
The mark [6] stands for this setting: LPS-induced RAW 264.7 macrophages.
The mark [7] stands for this setting: Mus musculus, RAW264.7, LPS-induced RAW 264.7 macrophages.

What is called viability is a read-out of living cells in per cent, often relative to untreated cells. For the compound `COc1cc(-c2nn(-c3cccc(NC(=O)CN4CCOCC4)c3)cc2-c2ccncc2)ccc1Cl` [Compound 1b], in data set [1], the viability at 1 µM was found to be 92 ± 4.5% and the viability at 10 µM is 65 ± 2.8%.
As a reminder, the IC50 is the concentration needed to halve the response being measured. A higher IC50 goes with weaker potency in that assay. By inhibition is commonly meant the share of the control response that was lost under treatment. Consider `COc1cc(-c2nn(-c3cccc(NC(=O)CN4CCN(Cc5ccccc5)CC4)c3)cc2-c2ccncc2)ccc1Cl` [Compound 1f], for which, in the data set on RAW 264.7 macrophages [2], the “cytotoxicity (in words)” value is given as “non-cytotoxic”. Also, in data set [1], the viability at 1 µM is 66 ± 1.8% and the viability at 10 µM was 107 ± 8.5%. Moreover, in data set [3] (setting [6]), the “inhibition of PGE2 production (in words)” value was “good inhibition values” and the IC50 came to 7.1 µM. In data set [3] (setting [7]), inhibition was half-maximal at 7.6 µM (IC50) and the inhibition at 10 µM was found to be 65.4%. For the same compound, in data set [3] (Mus musculus, RAW264.7, 5 μM, LPS-induced RAW 264.7 macrophages), the inhibition at 5 µM is 37.4%. Besides, the “Inhibition Rate (%) of NO production” value in data set [4] (10 μM) turned out to be 11.06 ± 1.5%. Moreover, in data set [4], the inhibition at 1 µM came out at 0% and the inhibition at 10 µM turned out to be 11.6%. In the data set on RAW 264.7 macrophages [5], the “cytotoxicity (in words), LPS-induced RAW 264.7 cell viability” value was “no cytotoxicity”.
As for `COc1cc(-c2nn(-c3cccc(NC(=O)CN4CCN(c5ccccc5)CC4)c3)cc2-c2ccncc2)ccc1Cl` [Compound 1e], in data set [1], the viability at 1 µM turned out to be 87 ± 4.1% and the viability at 10 µM amounted to 65 ± 4.1%.
On to `COc1cc(-c2nn(-c3cccc(NC(=O)CCN4CCN(Cc5ccc(F)cc5)CC4)c3)cc2-c2ccncc2)ccc1Cl` [Compound 1m], for which the “cytotoxicity (in words)” value in the data set with RAW 264.7 macrophages [2] is on record as “non-cytotoxic”. In addition, in data set [1], the viability at 1 µM stood at 90 ± 4.1% and the viability at 10 µM was determined as 97 ± 3.9%. In addition, in data set [3] (setting [6]), the “inhibition of PGE2 production (in words)” value is reported as “good inhibition values”. In data set [3] (setting [7]), this compound displayed a 50% inhibitory concentration (IC50) of 1.1 µM and an inhibition at 10 µM of 84.9%. The inhibition at 2.5 µM in data set [3] (Mus musculus, RAW264.7, 2.5 μM, LPS-induced RAW 264.7 macrophages) was 67%. The “effect on phosphorylation of p38 (in words)” value in the data set with phosphorylation of p38 is given as “markedly suppressed”. For the same compound, in the data set with iNOS protein expression, the “effect on iNOS protein expression (in words)” value is listed as “concentration-dependent inhibitory effect”. In the data set with COX-2 protein expression, the “effect on COX-2 protein expression (in words)” value is “concentration-dependent inhibitory effect”. For the same compound, the “Inhibition Rate (%) of NO production” value in data set [4] (10 μM) came out at 37.19 ± 3.4%. Also, in data set [4], the inhibition at 1 µM is 0% and the inhibition at 10 µM is 37%. In addition, the “cytotoxicity (in words), LPS-induced RAW 264.7 cell viability” value with RAW 264.7 macrophages [5] is “no cytotoxicity”.
On to `CCN1CCN(CCC(=O)Nc2cccc(-n3cc(-c4ccncc4)c(-c4ccc(Cl)c(OC)c4)n3)c2)CC1` [Compound 1j], for which, in data set [1], the viability at 1 µM turned out to be 98 ± 3.1% and the viability at 10 µM worked out at 5 ± 0.8%.
The matching figures for `COc1cc(-c2nn(-c3cccc(NC(=O)CN4CCN(C)CC4)c3)cc2-c2ccncc2)ccc1Cl` [Compound 1c]: 78 ± 3.3% and 5 ± 0.8%.
The matching figures for `COc1cc(-c2nn(-c3cccc(NC(=O)CCN4CCCCC4)c3)cc2-c2ccncc2)ccc1Cl` [Compound 1g]: 87 ± 3.8% and 5 ± 1.1%.
For the compound `COc1cc(-c2nn(-c3cccc(NC(=O)CCN4CCN(Cc5ccccc5)CC4)c3)cc2-c2ccncc2)ccc1Cl` [Compound 1l], in data set [1], the viability at 1 µM was found to be 86 ± 3.7% and the viability at 10 µM came out at 34 ± 1.1%.
The matching figures for `COc1cc(-c2nn(-c3cccc(NC(=O)CCN4CCOCC4)c3)cc2-c2ccncc2)ccc1Cl` [Compound 1h]: 99 ± 2.8% and 75 ± 1.7%.
As to `COc1cc(-c2nn(-c3cccc(NC(=O)CN4CCCCC4)c3)cc2-c2ccncc2)ccc1Cl` [Compound 1a], in data set [1], the viability at 1 µM was 99 ± 5.9% and the viability at 10 µM is 10 ± 1.2%.
With `COc1cc(-c2nn(-c3cccc(NC(=O)CCN4CCN(c5ccccc5)CC4)c3)cc2-c2ccncc2)ccc1Cl` [Compound 1k], the “cytotoxicity (in words)” value in the data set on RAW 264.7 macrophages [2] is on record as “non-cytotoxic”. Also, in data set [1], the viability at 1 µM came to 89 ± 2.8% and the viability at 10 µM turned out to be 112 ± 7.6%. In addition, the “inhibition of PGE2 production (in words)” value in data set [3] (setting [6]) is recorded as “good inhibition values”. Besides, the “cytotoxicity (in words), LPS-induced RAW 264.7 cell viability” value in the data set on RAW 264.7 macrophages [5] is listed as “no cytotoxicity”.
Regarding `COc1cc(-c2nn(-c3cccc(NC(=O)CCN4CCN(C)CC4)c3)cc2-c2ccncc2)ccc1Cl` [Compound 1i], in data set [1], the viability at 1 µM turned out to be 99 ± 3.4% and the viability at 10 µM is 5 ± 1.8%.
Consider `CC(=N)NCCCC[C@H](N)C(=O)O` [L-NIL, reference compound], for which the “Inhibition Rate (%) of NO production” value is 3.9 ± 2.1% in data set [4] (1 μM) and 31.32 ± 2.9% in data set [4] (10 μM).
With `CCN1CCN(CC(=O)Nc2cccc(-n3cc(-c4ccncc4)c(-c4ccc(Cl)c(OC)c4)n3)c2)CC1` [Compound 1d], in data set [1], the viability at 1 µM was 75 ± 2.9% and the viability at 10 µM is 3 ± 0.4%.
